In patent US11766419B2, “Mebeverine as soluble epoxide hydrolase inhibitor” (Banasthali Vidyapith, priority 2021, dated 2023):

Experiments:
sEH = molecular target: T1, sEH (Homo sapiens, UniProt P34913); assay: In vitro sEH activity assay (PHOME substrate, fluorescence); assay type: biochemical; design: sEH inhibitory activity (in words): dose or concentration left out as unconfirmed
T1 sequence (P34913 1-555): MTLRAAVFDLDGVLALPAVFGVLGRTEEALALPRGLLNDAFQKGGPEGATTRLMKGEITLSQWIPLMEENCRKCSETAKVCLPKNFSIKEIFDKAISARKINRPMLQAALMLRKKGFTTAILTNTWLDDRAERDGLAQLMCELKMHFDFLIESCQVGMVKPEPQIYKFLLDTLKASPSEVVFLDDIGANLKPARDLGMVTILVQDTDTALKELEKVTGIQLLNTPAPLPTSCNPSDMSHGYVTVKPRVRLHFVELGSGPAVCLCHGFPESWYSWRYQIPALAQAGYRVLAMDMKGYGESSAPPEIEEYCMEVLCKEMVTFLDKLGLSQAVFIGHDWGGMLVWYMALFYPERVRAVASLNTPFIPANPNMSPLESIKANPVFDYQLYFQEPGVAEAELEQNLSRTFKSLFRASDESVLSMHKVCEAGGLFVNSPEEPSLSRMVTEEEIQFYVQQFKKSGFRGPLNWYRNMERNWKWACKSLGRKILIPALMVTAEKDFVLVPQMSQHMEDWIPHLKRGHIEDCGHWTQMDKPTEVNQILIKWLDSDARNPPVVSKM
Procedure: Hydrolysis of PHOME by sEH results in the release of cyanohydrins that further decomposes to cyanide ion and 6-methoxy-2-naphthaldehyde (highly fluorescent). The fluorescence was analyzed at an excitation and emission wavelength of 330 nm and 465 nm respectively.

[1] = test system: Triton WR-1339 induced hyperlipidaemic rats; assay: Triton WR-1339 induced hyperlipidemia, serum lipid profile and CRI/AI; assay type: in vivo, rat; settings: for CRI: Coronary risk index; for Cholesterol / HDL / LDL / Triglycerides / VLDL: serum
Procedure: Wistar albino male rats were divided into four experimental groups (I, II, III and IV). Groups II-IV were treated with intraperitoneal injection of Triton WR-1339 (200 mg/kg in 2% gum acacia) in 12 h fasted rats to induce hyperlipidemia. Group III and IV were orally administered with Mebeverine twice daily for 3 days at 10 mg/kg and 20 mg/kg. After 48 h, induction of hyperlipidemia blood serum was investigated for total cholesterol and triglycerides. Blood samples were collected from all experimental rats on day 6 (4 days after start of treatment), and, subsequently, serum was separated for analysis of serum lipid profile parameters and CRI/AI. Liver was excised and stored at −80° C. until biochemical parameters in hepatic tissue samples were analysed. The results are tabulated below in Table 6 and plotted in FIGS. 7 (a-e) and 8.

[2] = test system: Lipopolysaccharide (LPS)-induced hyperlipidaemic rats; assay: LPS-induced hyperlipidemia, serum lipid profile and CRI/AI; assay type: in vivo, rat; settings: for AI: Atherogenic index; for CRI: Coronary risk index; for Cholesterol / HDL / LDL / Triglycerides / VLDL: serum
Procedure: Wistar albino male rats were divided into different experimental groups—Single dose of 10 mg/kg, i.p. of LPS was administered to all the groups (II-IV). After 3 days of induction mebeverine was orally given twice daily for 5 days to groups (III-IV). After last dose, on day 5, blood samples were collected from all experimental rats for analysis of serum lipid profile parameters and CRI/AI. The results are tabulated below in Table 8 and plotted in FIGS. 11 (a-e) and 12. Biochemical estimations in hepatic tissue samples were also analyzed.

[3] = test system: Lipopolysaccharide (LPS)-induced hyperlipidemic rats; assay: TBAR and SOD level in hepatic tissue, LPS-induced hyperlipidemia; assay type: in vivo, rat
Procedure: Wistar albino male rats were divided into different experimental groups—Single dose of 10 mg/kg, i.p. of LPS was administered to all the groups (II-IV). After 3 days of induction mebeverine was orally given twice daily for 5 days to groups (III-IV). After last dose, on day 5, blood samples were collected from all experimental rats for analysis of serum lipid profile parameters and CRI/AI. […] Biochemical estimations in hepatic tissue samples were also analyzed.

[4] = 10 mg/kg orally twice daily for 3 days
[5] = 20 mg/kg orally twice daily for 3 days
[6] = 10 mg/kg orally twice daily for 5 days
[7] = 20 mg/kg orally twice daily for 5 days

Compound: CCN(CCCCOC(=O)c1ccc(OC)c(OC)c1)C(C)Cc1ccc(OC)cc1 (stereo not drawn) [Mebeverine]
- sEH inhibitory activity (in words) (sEH; dose-dependent): potent inhibitor of sEH enzyme
- IC50 (sEH; sEH, PHOME substrate): 3.9 nM
- HDL (in words) ([1]; 10 mg/kg): increases HDL
- triglycerides, cholesterol, LDL and VLDL and CRI/AI (in words) ([1]; 10 mg/kg): markedly decreases
- AT [1, 4]: 2.32 ± 0.02
- AT [1, 5]: 0.79 ± 0.19
- CRI [1, 4]: 3.32 ± 0.02
- CRI [1, 5]: 1.79 ± 0.02
- Cholesterol [1, 4]: 108.00 ± 8.48 mg/dL
- HDL [1, 4]: 32.50 ± 2.12 mg/dL
- LDL [1, 4]: 55.90 ± 9.75 mg/dL
- Triglycerides [1, 4]: 98.00 ± 9.8 mg/dL
- VLDL [1, 4]: 19.60 ± 3.25 mg/dL
- Cholesterol [1, 5]: 95.00 ± 4.94 mg/dL
- HDL [1, 5]: 53.00 ± 1.59 mg/dL
- LDL [1, 5]: 26.90 ± 1.83 mg/dL
- Triglycerides [1, 5]: 77.00 ± 9.19 mg/dL
- VLDL [1, 5]: 15.40 ± 1.83 mg/dL
- AI [2, 6]: 2.14 ± 0.02
- AI [2, 7]: 1.01 ± 0.17
- CRI [2, 6]: 3.14 ± 0.14
- CRI [2, 7]: 2.01 ± 0.17
- Cholesterol [2, 6]: 132.5 ± 4.24 mg/dL
- HDL [2, 6]: 42.0 ± 1.41 mg/dL
- LDL [2, 6]: 58.3 ± 3.25 mg/dL
- Triglycerides [2, 6]: 158.5 ± 3.58 mg/dL
- VLDL [2, 6]: 31.6 ± 0.34 mg/dL
- Cholesterol [2, 7]: 103.50 ± 1.41 mg/dL
- HDL [2, 7]: 51.00 ± 3.53 mg/dL
- LDL [2, 7]: 30.0 ± 3.25 mg/dL
- Triglycerides [2, 7]: 110.00 ± 2.82 mg/dL
- VLDL [2, 7]: 22.0 ± 0.56 mg/dL
- SOD ([3]; 10 mg/kg): 67.13 ± 0.21 U/g protein
- TBAR ([3]; 10 mg/kg): 1.10 ± 0.01 nmol/mg protein
- SOD ([3]; 20 mg/kg): 74.50 ± 0.15 U/g protein
- TBAR ([3]; 20 mg/kg): 0.701 ± 0.02 nmol/mg protein
